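Compound exposure: 48 hours, 5 concentrations, 96-well plates. Here, GI50 denotes the concentration required for 50% inhibition of growth.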 Activity calls are given as the source filed them. Rule as the data show it: active = GI50 up to about 1.1 µM and inactive = higher.
Legend:
Assay in all cases: NCI anticancer screen, dose series, 48 h
786-0 = test system: 786-0
K562 = test system: K562
SNB-19 = test system: SNB-19
HL-60 = test system: HL-60
U-251 = test system: U-251
MDA-N = test system: MDA-N
UACC-257 = test system: UACC-257
NCI-H23 = test system: NCI-H23
RPMI-8226 = test system: RPMI-8226
NCI-H226 = test system: NCI-H226
SNB-75 = test system: SNB-75
NCI-H522 = test system: NCI-H522
HOP-92 = test system: HOP-92
Hs-578T = test system: Hs-578T
PC-3 = test system: PC-3
SK-MEL-28 = test system: SK-MEL-28
A549 = test system: A549
Malme-3M = test system: Malme-3M
A498 = test system: A498
UACC-62 = test system: UACC-62

Measured: GI50

COc1ccc(C=O)cc1Oc1ccc(C[C@H]2c3c(cc(OC)c4c3Oc3cc5c(cc3O4)CCN(C)C5=O)CCN2C)cc1
inactive: 786-0 8.61 µM | K562 6.05 µM | SNB-19 12 µM | HL-60 8.85 µM | U-251 9.51 µM | MDA-N 8.67 µM | UACC-257 8.04 µM | NCI-H23 7.14 µM | RPMI-8226 5.04 µM | NCI-H226 8.59 µM | SNB-75 7.29 µM | NCI-H522 9.44 µM | HOP-92 7.14 µM | Hs-578T 8.04 µM | PC-3 8.75 µM | SK-MEL-28 10.6 µM | A549 36.2 µM | Malme-3M 10.4 µM | A498 20.1 µM

COC(=O)C(Cc1nc2ccccc2nc1O)C(=O)C(=O)Nc1cc(C(F)(F)F)ccc1Cl (configuration not stated)
inactive: 786-0 12.6 µM | K562 12 µM | UACC-62 18.2 µM | HL-60 10.3 µM | U-251 9.91 µM | MDA-N 25.9 µM | UACC-257 28.3 µM | NCI-H23 14.2 µM | RPMI-8226 7.01 µM | NCI-H226 18 µM | SNB-75 18.6 µM | NCI-H522 3.87 µM | HOP-92 11.6 µM | Hs-578T 12.7 µM | PC-3 17 µM | SK-MEL-28 25.4 µM | A549 69.2 µM | Malme-3M 14.1 µM | A498 24 µM

C/C(=N\NC(N)=S)c1cccs1.OB(O)c1ccccc1
inactive: 786-0 > 100 µM | K562 > 100 µM | SNB-19 > 100 µM | UACC-62 > 100 µM | HL-60 > 100 µM | U-251 > 100 µM | MDA-N > 100 µM | NCI-H23 > 100 µM | RPMI-8226 > 100 µM | NCI-H226 > 100 µM | SNB-75 > 100 µM | NCI-H522 70.6 µM | HOP-92 > 100 µM | Hs-578T > 100 µM | PC-3 > 100 µM | SK-MEL-28 > 100 µM | A549 > 100 µM | Malme-3M > 100 µM | A498 > 100 µM

O=C(/N=C1/NCC(CN2CCN(c3ccccc3)CC2)O1)Nc1ccccc1 (configuration not stated)
inactive: 786-0 > 100 µM | K562 > 100 µM | SNB-19 > 100 µM | UACC-62 > 100 µM | HL-60 > 100 µM | U-251 > 100 µM | MDA-N > 100 µM | UACC-257 > 100 µM | NCI-H23 > 100 µM | RPMI-8226 > 100 µM | NCI-H226 > 100 µM | NCI-H522 > 100 µM | HOP-92 > 100 µM | Hs-578T > 100 µM | PC-3 > 100 µM | SK-MEL-28 > 100 µM | A549 > 100 µM | Malme-3M > 100 µM | A498 > 100 µM

COc1ccc2c3c(c(=O)n(C)c2c1OC)C=CC(C)(C)O3
inactive: 786-0 43.1 µM | SNB-19 20.7 µM | UACC-62 37.8 µM | HL-60 11.2 µM | U-251 30.6 µM | MDA-N 21.7 µM | UACC-257 35.3 µM | NCI-H23 22.8 µM | RPMI-8226 10 µM | NCI-H226 22.2 µM | SNB-75 2.78 µM | NCI-H522 34.5 µM | HOP-92 18 µM | Hs-578T 23.5 µM | PC-3 33.7 µM | SK-MEL-28 41.9 µM | A549 44.7 µM | Malme-3M 50.4 µM | A498 17.9 µM

Cc1ccc(OC2CC(n3cnc4ncnc(Cl)c43)OC2Oc2ccc(C)cc2)cc1 (configuration not stated)
inactive: 786-0 > 100 µM | SNB-19 16.1 µM | UACC-62 14.1 µM | HL-60 3.77 µM | U-251 36.1 µM | MDA-N 22.4 µM | UACC-257 44.8 µM | NCI-H23 24.8 µM | RPMI-8226 2.81 µM | NCI-H226 13.7 µM | SNB-75 15.6 µM | NCI-H522 5.36 µM | HOP-92 8.77 µM | Hs-578T 21.8 µM | PC-3 16.4 µM | SK-MEL-28 > 100 µM | A549 25.2 µM | Malme-3M 40.5 µM | A498 45.6 µM

Nc1nc(Nc2ccccc2)sc1C(=O)c1cccs1
inactive: 786-0 11.5 µM | K562 9.86 µM | SNB-19 16.6 µM | UACC-62 15.7 µM | HL-60 3.57 µM | U-251 15.3 µM | MDA-N 17.1 µM | UACC-257 17.7 µM | NCI-H23 16.2 µM | RPMI-8226 12.8 µM | NCI-H226 16.8 µM | NCI-H522 11 µM | HOP-92 30.3 µM | Hs-578T 15.8 µM | PC-3 15.9 µM | SK-MEL-28 25.4 µM | A549 14.2 µM | Malme-3M 22.1 µM | A498 14.6 µM

O=C(NC(Cc1c[nH]cn1)C(=O)N1CCCC1)C1CCCC1 (configuration not stated)
inactive: 786-0 > 100 µM | K562 > 100 µM | SNB-19 > 100 µM | UACC-62 > 100 µM | HL-60 > 100 µM | U-251 > 100 µM | MDA-N > 100 µM | NCI-H23 > 100 µM | RPMI-8226 > 100 µM | NCI-H226 > 100 µM | SNB-75 > 100 µM | NCI-H522 > 100 µM | HOP-92 > 100 µM | Hs-578T 83.8 µM | PC-3 > 100 µM | SK-MEL-28 > 100 µM | A549 > 100 µM | Malme-3M > 100 µM | A498 37.9 µM

— ChEMBL document CHEMBL1201862, “PubChem BioAssay data set” (2004)
